Laboratory results: patent US20110177970A1, “METHODS FOR PREDICTING OR MONITORING WHETHER A PATIENT AFFECTED BY A CANCER IS RESPONSIVE TO A TREATMENT WITH A MOLECULE OF THE TAXOID FAMILY” (Inserm (Institut National de la Sante et de la Recherche …, priority 2008, published 2011)

Tests used:
parental IGR-CaP1 cells = test: WST1 cell proliferation assay, cytotoxic effect of docetaxel, parental cells; format: cell-based, human; settings: docetaxel 1.25 nM to 50 nM, 72 h
Excerpt: (§1) The data represent the mean of three different experiments, the error bars represent the SEM.
(§2) Several clonally-derived cells were obtained from the parental IGR-CaP1 cells by limit dilutions.

[1] = system: patients treated with docetaxel; settings: from the beginning or in a secondary way; cited from earlier work
[2] = system: 3A11 clone (clonally-derived IGR-CaP1 cells); test: WST1 cell proliferation assay, cytotoxic effect of docetaxel, clone 3A11; format: cell-based, human
Excerpt: as §1, §2

[3] = system: 3B1 clone (clonally-derived IGR-CaP1 cells); test: WST1 cell proliferation assay, cytotoxic effect of docetaxel, clone 3B1; format: cell-based, human
Excerpt: as §1, §2

[4] = system: breast cancer metastatic tumours; settings: cited from earlier work
[5] = system: docetaxel resistant cells; settings: cited from earlier work

For `CC(=O)O[C@@]12CO[C@@H]1C[C@H](O)[C@@]1(C)C(=O)[C@H](O)C3=C(C)[C@@H](OC(=O)[C@H](O)[C@@H](NC(=O)OC(C)(C)C)c4ccccc4)C[C@@](O)([C@@H](OC(=O)c4ccccc4)[C@H]21)C3(C)C` [docetaxel], the “cell proliferation (WST1)” value (parental IGR-CaP1 cells) is listed as “decreased cell proliferation in a dose-dependent manner”, the “patients who develop a resistance to the chemotherapy” value [1] is listed as “almost half of the patients” and the “effect on proliferation compared to parental IGR-CaP1 cells” value ([2]; 3A11 clone vs parental, p<0.001) is listed as “significantly lower extent”. The “cell proliferation (WST1)” value ([2]; 3A11 clone, docetaxel 1.25 nM to 50 nM, 72 h) was “decreased cell proliferation in a dose-dependent manner”, the “effect on proliferation compared to parental IGR-CaP1 cells” value ([3]; 3B1 clone vs parental, p<0.001) was “significantly lower extent” and the “cell proliferation (WST1)” value ([3]; 3B1 clone, docetaxel 1.25 nM to 50 nM, 72 h) was “decreased cell proliferation in a dose-dependent manner”. For the same molecule, the “metastatic tumours that respond” value [4] was 30 to 50%.
In the case of `Oc1ccc(C=Cc2cc(O)cc(O)c2)cc1` [resveratrol], the apoptosis [5] is given as “increase of apoptosis” and the expression of clusterin [5] is given as “decreased expression of clusterin”.
